Reference: US8586603B2, “Aminotetraline derivatives” (priority 2009, dated 2013)
Several values for one entry are separate records, joined by “and”; a condition that tells them apart may be missing. Equal entries are not always repeated. Where two headings read alike, the source gives them in different places.

Assays:
[1] = target: T1, porcine striatal pD1 dopamine receptor (Sus scrofa, UniProt P50130); test: Receptor binding assay, [3H]SCH 23390 competition, porcine striatal membranes; conditions: for Ki: means of 2-8 individual experiments each done as triplicate; for selectivity ratio pD1: vs p5-HT1a
T1 construct: membrane homogenates prepared from porcine striatal or cortical tissue; from tissue; host or cells: porcine striatum

[2] = target: T2, human dopamine receptor subtype hD4.4 (Homo sapiens, UniProt P21917); test: Receptor binding assay, [3H]spiperone competition, CHO cell membranes; conditions: for Ki: means of 2-8 individual experiments each done as triplicate; for selectivity ratio hD4.4: vs p5-HT1a
T2 construct: expressed in transfected cells; host or cells: CHO
T2 sequence (P21917 1-419): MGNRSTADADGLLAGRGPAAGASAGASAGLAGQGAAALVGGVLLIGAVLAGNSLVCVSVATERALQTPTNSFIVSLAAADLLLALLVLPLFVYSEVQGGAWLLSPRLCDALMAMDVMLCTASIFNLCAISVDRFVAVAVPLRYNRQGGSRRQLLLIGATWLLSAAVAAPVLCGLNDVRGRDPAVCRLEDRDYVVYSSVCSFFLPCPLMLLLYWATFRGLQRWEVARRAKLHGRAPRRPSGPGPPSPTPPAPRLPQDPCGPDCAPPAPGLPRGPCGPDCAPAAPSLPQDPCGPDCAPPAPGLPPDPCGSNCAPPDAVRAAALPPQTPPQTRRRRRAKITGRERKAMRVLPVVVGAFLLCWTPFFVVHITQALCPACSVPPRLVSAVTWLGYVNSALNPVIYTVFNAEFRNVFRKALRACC
Protocol: Receptor binding data were determined when performing competition binding assays with membrane preparations of cloned cells (stably transfected Chinese Hamster Ovary cells (CHO)) expressing the human receptors and the following radioligands: [^3H]spiperone at the human dopamine receptor subtypes hD2long, hD2short, D3, and hD4.4. […].
(§1) Selectivity ratios were calculated by division of the Ki values of the various compounds at the respective receptors through the Ki values at the 5HT1a receptor.

[3] = target: T3, porcine cortical pα1 adrenergic receptor; test: Receptor binding assay, [3H]prazosin competition, porcine cortical membranes; conditions: means of 2-8 individual experiments each done as triplicate
T3 construct: Ki pα1; other: means of 2-8 individual experiments each done as triplicate

[4] = tested on: porcine cortical pα1 adrenergic receptor; test: as above; conditions: vs p5-HT1a
human 5-HT1a receptor = target: T4, human 5-HT1a receptor (Homo sapiens, UniProt P08908); test: [35S]GTPγS functional assay; assay type: biochemical; conditions: for Emax: read-out: intrinsic activity [% rel. to serotonin]
T4 construct: expressed in transfected cells
T4 sequence (P08908 1-422): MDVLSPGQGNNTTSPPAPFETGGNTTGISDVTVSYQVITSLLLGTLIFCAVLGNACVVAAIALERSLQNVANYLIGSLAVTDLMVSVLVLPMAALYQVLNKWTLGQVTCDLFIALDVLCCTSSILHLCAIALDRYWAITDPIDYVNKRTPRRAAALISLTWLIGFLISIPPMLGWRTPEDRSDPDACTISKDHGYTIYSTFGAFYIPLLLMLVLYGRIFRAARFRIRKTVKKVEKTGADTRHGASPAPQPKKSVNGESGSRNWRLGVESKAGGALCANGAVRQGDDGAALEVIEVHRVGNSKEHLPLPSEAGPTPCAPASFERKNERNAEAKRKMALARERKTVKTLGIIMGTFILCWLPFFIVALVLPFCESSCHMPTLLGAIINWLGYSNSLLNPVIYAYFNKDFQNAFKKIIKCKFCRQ
Protocol: Specific binding of [^35S]GTPγS is stimulated by activation of the stably expressed human 5-HT1a receptor in a dose-dependent way by agonists for this GPCR and is determined by measuring the radioactive label of the membrane. Non-linear regression analysis of the resulting dose-response curves yields the EC50 value in [nM] representing the half maximal concentration which is necessary to activate the receptor completely.

[5] = target: T5, porcine cortical p5-HT2 serotonin receptor (Sus scrofa, UniProt P50129); test: Receptor binding assay, [3H]ketanserin competition, porcine cortical membranes; conditions: for Ki: means of 2-8 individual experiments each done as triplicate; for selectivity ratio p5-HT2: vs p5-HT1a
T5 construct: membrane homogenates prepared from porcine striatal or cortical tissue; from tissue; host or cells: porcine cortex

[6] = target: T6, porcine cortical p5-HT1a serotonin receptor (Sus scrofa, UniProt A0A4X1UTF5); test: Receptor binding assay, [3H]WAY100635 competition, porcine cortical membranes; conditions: for Ki: means of 2-8 individual experiments each done as triplicate; for selectivity ratio p5-HT1a: reference receptor of the ratio (=1)
T6 construct: membrane homogenates prepared from porcine striatal or cortical tissue; from tissue; host or cells: porcine cortex
T6 sequence (A0A4X1UTF5 1-422): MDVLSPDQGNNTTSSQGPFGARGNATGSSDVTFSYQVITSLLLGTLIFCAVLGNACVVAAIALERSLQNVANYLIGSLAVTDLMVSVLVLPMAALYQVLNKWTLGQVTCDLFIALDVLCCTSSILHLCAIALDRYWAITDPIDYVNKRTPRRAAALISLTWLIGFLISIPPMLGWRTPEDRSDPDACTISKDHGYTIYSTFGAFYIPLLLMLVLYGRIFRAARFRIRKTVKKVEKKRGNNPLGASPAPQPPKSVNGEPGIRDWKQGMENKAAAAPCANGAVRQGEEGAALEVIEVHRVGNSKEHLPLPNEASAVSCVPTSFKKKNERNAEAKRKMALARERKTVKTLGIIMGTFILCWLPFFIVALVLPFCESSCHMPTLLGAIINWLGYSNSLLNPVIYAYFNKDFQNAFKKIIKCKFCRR

[7] = target: porcine cortical pα2 adrenergic receptor; test: Receptor binding assay, [3H]RX821002 competition, porcine cortical membranes; conditions: means of 2-8 individual experiments each done as triplicate
[8] = target: T7, human dopamine receptor subtype hD2short (Homo sapiens, UniProt P14416); test: Receptor binding assay, [3H]spiperone competition, CHO cell membranes; conditions: for Ki: means of 2-8 individual experiments each done as triplicate; for selectivity ratio hD2short: vs p5-HT1a
T7 construct: expressed in transfected cells; host or cells: CHO
Protocol: (§2) Receptor binding data were determined when performing competition binding assays with membrane preparations of cloned cells (stably transfected Chinese Hamster Ovary cells (CHO)) expressing the human receptors and the following radioligands: [^3H]spiperone at the human dopamine receptor subtypes hD2long, hD2short, D3, and hD4.4.
as §1

[9] = target: T8, human dopamine receptor subtype hD2long (Homo sapiens, UniProt P14416); test: as above; conditions: for Ki: means of 2-8 individual experiments each done as triplicate; for selectivity ratio hD2long: vs p5-HT1a
T8 construct: expressed in transfected cells; host or cells: CHO
Protocol: as §2, §1

[10] = target: T9, human dopamine receptor subtype hD3 (Homo sapiens, UniProt P35462); test: as above; conditions: for Ki: means of 2-8 individual experiments each done as triplicate; for selectivity ratio hD3: vs p5-HT1a
T9 construct: expressed in transfected cells; host or cells: CHO
Protocol: as §2, §1

[11] = mean values of 2-8 individual experiments

T5 sequence (P50129 whole entry): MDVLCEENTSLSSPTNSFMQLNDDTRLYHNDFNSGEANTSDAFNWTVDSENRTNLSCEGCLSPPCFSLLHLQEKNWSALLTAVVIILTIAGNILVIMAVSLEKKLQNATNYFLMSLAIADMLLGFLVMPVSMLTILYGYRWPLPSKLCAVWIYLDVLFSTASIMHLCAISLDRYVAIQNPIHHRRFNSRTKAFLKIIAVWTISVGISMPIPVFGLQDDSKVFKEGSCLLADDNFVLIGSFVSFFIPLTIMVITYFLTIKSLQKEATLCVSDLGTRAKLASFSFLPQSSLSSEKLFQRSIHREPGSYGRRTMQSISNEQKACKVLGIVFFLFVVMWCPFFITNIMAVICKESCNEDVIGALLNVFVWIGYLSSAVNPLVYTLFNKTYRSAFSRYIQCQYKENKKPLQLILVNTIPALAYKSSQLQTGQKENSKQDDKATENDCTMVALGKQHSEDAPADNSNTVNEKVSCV
T8 sequence (P14416 whole entry): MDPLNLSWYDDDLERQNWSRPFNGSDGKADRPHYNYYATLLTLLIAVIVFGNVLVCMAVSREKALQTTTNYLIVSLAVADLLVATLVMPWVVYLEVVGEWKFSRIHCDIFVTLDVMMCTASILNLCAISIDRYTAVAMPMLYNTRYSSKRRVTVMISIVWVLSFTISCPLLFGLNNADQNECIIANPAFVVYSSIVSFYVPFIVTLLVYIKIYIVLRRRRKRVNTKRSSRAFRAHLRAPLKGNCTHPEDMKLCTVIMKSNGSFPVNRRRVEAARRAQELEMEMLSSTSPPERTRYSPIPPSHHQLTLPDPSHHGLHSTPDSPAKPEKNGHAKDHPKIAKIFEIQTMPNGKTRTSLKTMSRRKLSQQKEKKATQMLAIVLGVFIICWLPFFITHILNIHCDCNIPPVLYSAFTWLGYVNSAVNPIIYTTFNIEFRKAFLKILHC
T7 sequence (P14416 1-414 isoform P14416-2): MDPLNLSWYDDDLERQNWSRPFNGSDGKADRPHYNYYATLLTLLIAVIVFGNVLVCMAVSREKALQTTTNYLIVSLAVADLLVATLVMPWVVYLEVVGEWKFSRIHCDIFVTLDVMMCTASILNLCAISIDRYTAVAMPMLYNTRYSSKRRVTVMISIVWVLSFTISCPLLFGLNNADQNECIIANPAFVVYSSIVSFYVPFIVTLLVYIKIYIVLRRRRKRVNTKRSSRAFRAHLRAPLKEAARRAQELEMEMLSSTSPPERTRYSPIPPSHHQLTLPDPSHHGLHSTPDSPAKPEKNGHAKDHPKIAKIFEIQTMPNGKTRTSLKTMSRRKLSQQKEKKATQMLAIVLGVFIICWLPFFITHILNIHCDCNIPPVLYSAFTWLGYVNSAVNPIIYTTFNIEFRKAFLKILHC
T9 sequence (P35462 whole entry): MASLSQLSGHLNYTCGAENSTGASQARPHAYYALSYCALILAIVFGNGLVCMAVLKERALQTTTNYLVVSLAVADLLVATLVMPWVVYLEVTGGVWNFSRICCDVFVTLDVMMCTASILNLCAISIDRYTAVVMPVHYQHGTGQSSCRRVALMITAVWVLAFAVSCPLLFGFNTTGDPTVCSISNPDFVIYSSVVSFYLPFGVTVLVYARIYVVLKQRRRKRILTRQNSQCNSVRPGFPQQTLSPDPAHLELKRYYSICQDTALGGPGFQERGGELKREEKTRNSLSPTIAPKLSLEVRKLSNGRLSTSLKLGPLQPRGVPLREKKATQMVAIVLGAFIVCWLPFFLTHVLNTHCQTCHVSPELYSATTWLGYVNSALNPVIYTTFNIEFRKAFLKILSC
T1 sequence (P50130 whole entry): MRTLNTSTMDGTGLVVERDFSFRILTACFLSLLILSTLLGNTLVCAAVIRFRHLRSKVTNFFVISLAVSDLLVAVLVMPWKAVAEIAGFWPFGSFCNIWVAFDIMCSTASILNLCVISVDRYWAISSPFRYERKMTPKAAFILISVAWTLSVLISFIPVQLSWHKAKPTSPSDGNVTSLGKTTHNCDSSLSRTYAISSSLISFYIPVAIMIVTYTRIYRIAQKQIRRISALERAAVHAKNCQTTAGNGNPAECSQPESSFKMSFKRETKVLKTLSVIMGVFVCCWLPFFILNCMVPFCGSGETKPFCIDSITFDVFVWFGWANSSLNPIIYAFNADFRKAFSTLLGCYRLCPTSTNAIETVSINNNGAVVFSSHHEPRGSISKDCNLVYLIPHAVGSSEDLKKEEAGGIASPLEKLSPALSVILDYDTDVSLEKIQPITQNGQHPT

Compound | Ki [1] [µM] | selectivity ratio pD1 [1] | Ki [2] [µM] | selectivity ratio hD4.4 [2] | Ki [3] [µM] | selectivity ratio pα1 [4] | EC50 (human 5-HT1a receptor; [11]) | Emax (human 5-HT1a receptor) [%] | Ki [5] [µM] | selectivity ratio p5-HT2 [5] | Ki [6] [µM] | selectivity ratio p5-HT1a [6] | Ki [7] [µM] | Ki [8] [µM] | selectivity ratio hD2short [8] | Ki [9] [µM] | selectivity ratio hD2long [9] | Ki [10] [µM] | selectivity ratio hD3 [10] | further results
CCCN(CCc1cccs1)[C@@H]1CCc2cccc(O)c2C1 [Compound 1a, (R)—N-(8-Hydroxytetralin-2-yl)-N-propyl-N-[2-(2-thienyl)ethyl]amine] | 8.8 | 17 000 | 0.1 | 190 | 0.64 | 1 200 | 0.00065 to 0.0019 µM and 0.00065 µM | 103 | 2.5 | 4 800 | 0.00052 | 1 | 0.056 | 0.26 | 500 | 0.24 | 460 | 0.1 | 190 | agonist activity at the human 5-HT1a receptor (human 5-HT1a receptor; in words): full agonist activity
CCCN(CCc1cc(C)ccc1C)C1CCc2cccc(O)c2C1 (stereo not drawn) [Compound 7, N-[2-(2,5-Dimethylphenyl)ethyl]-N-(8-hydroxytetralin-2-yl)-N-propylamine] | 2.4 | 1 400 | 0.49 | 290 | 0.078 | 46 |  |  | 1.7 | 1 000 | 0.0017 | 1 |  | 0.09 | 53 | 0.14 | 82 | 0.13 | 76 | melting point: 102 °C
CCCN(CCc1ccccc1)C1CCc2cccc(OC)c2C1 (stereo not drawn) [Compound 4, N-(8-Methoxytetralin-2-yl)-N-(2-phenylethyl)-N-propylamine] | 7.3 |  | 0.53 |  | 0.19 |  |  |  | 4.2 |  | 0.0025 |  | 0.06 | 0.23 |  | 0.33 |  | 0.051 |  | 
N-(2-Adamantylethyl)-N-(8-hydroxytetralin-2-yl)-N-propylamine [Compound 9] | 2.6 | 740 | 0.35 | 100 | 0.57 | 160 |  |  | 1.6 | 1600 | 0.0035 | 1 |  | 0.012 | 3.4 | 0.016 | 4.6 | 0.039 | 11 | EC50 (human 5-HT1a receptor): 0.0019 µM; intrinsic activity [% rel. to serotonin] (human 5-HT1a receptor; [35S]GTPγS incorporation relative to serotonin (=100%)): 88%
CCCN(CCc1cccs1)[C@@H]1CCc2cccc(OC)c2C1 [Compound 2a, (R)—N-(8-Methoxytetralin-2-yl)-N-propyl-N-[2-(2-thienyl)ethyl]amine] | 5.2 |  | 0.88 |  | 0.14 |  | 0.0011 µM | 82 | 6 |  | 0.0073 |  | 0.064 | 0.84 |  | 0.75 |  | 0.23 |  | 
